In US20200046617A1, “Composition For Combating The Signs Of Ageing Of The Skin And Hair And Nails” (TOMCAT INTERNATIONAL LIMITED, priority 2017, published 2020):

How the values were obtained:
Type in all cases: cell-based
Col1A1 = Col1A1 gene expression in cutaneous fibroblasts (quantitative real-time PCR); details: 24 h, resveratrol 4 μM, betaine 5 mM or both; for Relative expression of Col1A1 Mean value: relative to untreated (ΔΔCt); for Relative expression of Col1A1 Increase (%): vs untreated
Experimental: Cutaneous fibroblasts were cultured for 24 h with resveratrol, betaine or mixtures of the two compounds.
For the gene expression analysis, the total RNAs were extracted from the fibroblast cultures and the expression measured by quantitative real-time PCR. RNA extraction was carried out using an RNeasy Mini Kit (Qiagen). The total RNAs were used for the cDNA synthesis using the iScript cDNA synthesis Kit (Biorad). The PCR reactions were conducted using the mix LightCycler® 480 SYBR Green I Master (Roche). To compare the relative expressions, the Δ ΔCt method was used. The relative expression of the gene of interest is represented by the expression variation compared with the untreated samples.

human fibroblasts [1] = assay: Intracellular ATP production by cultivated human fibroblasts (chemiluminescence-based assay); details: resveratrol 1 μM, betaine 1 mM or mixture; for ATP (μM per cell) Mean value: 120 min incubation, mean of 4 measurements; for ATP Increase (%): with respect to ATP level in untreated cells, 120 min
Experimental: Human fibroblasts were cultured at 37° C. in wet atmosphere with 5% CO2, on MEM supplemented with glucose, serum and glutamine. A solution containing trans-resveratrol and/or betaine is added to the culture medium:
The primary fibroblast cultures are incubated for 120 min with resveratrol at a final concentration of 1 μM, betaine at a concentration of 1 mM or a mixture of the two.
The cell viability is measured after incubation by fluorescence. The intracellular ATP concentration is measured by a chemiluminescence-based assay; the mean of 4 measurements is taken.
The intracellular ATP concentrations are expressed in μM of ATP per viable cell and percent of ATP increase is calculated with respect to the ATP level in untreated cells.

human fibroblasts [2] = assay: Mitochondrial mass of FK866-treated human fibroblasts (Nonyl Acridine Orange probe, flow cytometry); details: for Effect of treatment against FK866 on mitochondrial mass (in words): fibroblasts treated with FK866; for Mitochondrial mass Increase (%): vs FK866 2.5 nM non treated
Experimental: Human fibroblasts were cultured at 37° C. in wet atmosphere with 5% CO2, on MEM supplemented with glucose, serum and glutamine. The cells are treated with a chemical agent (FK866) in the presence or absence of the following compounds: Trans-resveratrol and Betaine. Agent FK866 reduces the cell mitochondrial mass, thereby mimicking one of the signs of ageing.
Under these conditions, the ability of the active ingredient to increase the mitochondrial mass is assessed.
After 24 h treatment, the mitochondrial mass is therefore measured using the Nonyl Acridine Orange (NAO, Invitrogen) probe which fluoresces at 533 nm. The cell viability can be measured by DAPI staining. A flow cytometry analysis is conducted with a FACS LSRII and the results analysed by FlowJo software.

[3] = in presence of FK866 2.5 nM, 24 h, betaine 5 mM, resveratrol 25 μM or both
[4] = 24 h, betaine 5 mM, resveratrol 25 μM or both

Compound	Relative expression of Col1A1 Mean value (Col1A1)	Relative expression of Col1A1 Increase (%) (Col1A1)	ATP (μM per cell) Mean value (human fibroblasts [1])	ATP Increase (%) (human fibroblasts [1])	Effect of treatment against FK866 on mitochondrial mass (in words) (human fibroblasts [2])	Mitochondrial mass (fluorescence units) Mean (human fibroblasts [2]; [3])	Mitochondrial mass Increase (%) (human fibroblasts [2]; [4])	Mitochondrial mass Decrease (%) (human fibroblasts [2]; FK866 2.5 nM alone vs basal, 24 h)	Mitochondrial mass (fluorescence units) Mean (human fibroblasts [2]; FK866 2.5 nM alone, 24 h treatment)	Effect of FK866 on mitochondrial mass of fibroblasts (in words) (human fibroblasts [2]; FK866 alone)
Oc1ccc(C=Cc2cc(O)cc(O)c2)cc1 [Resveratrol, 3,5,4′-trihydroxystilbene]	1.22	22%	0.086 μM per cell	28%	protects against the effects of FK866	2285 fluorescence units	72%			
O=C(/C=C/c1cccnc1)NCCCCC1CCN(C(=O)c2ccccc2)CC1 [FK866, reference compound]								10%	1326 fluorescence units	decreases the mitochondrial mass
C[N+](C)(C)CC(=O)[O-] [Betaine, trimethylglycine]	1.28	28%	0.080 μM per cell	20%	protects against the effects of FK866	1574 fluorescence units	19%			
